# Measured values published in the kinase profiling compilation of Christmann-Franck et al. (2016).
# Several values for one entry are separate records, joined by “and”; a condition that tells them apart may be missing. Equal values may be shown once.
# Columns and labels:
# Assay in all cases: radiometric filter-binding kinase assay, Kinase HotSpot
# Conditions in all cases: compound 0.5 µM; ATP 10 µM
# PRKCE (human) = PRKCE (human) (UniProt Q02156)
# BRAF (human) = BRAF (human) (UniProt P15056)
# PRKCH (human) = PRKCH (human) (UniProt P24723)
# MAP4K4 (human) = MAP4K4 (human) (UniProt O95819)
# CSK (human) = CSK (human) (UniProt P41240)
# Sequence of CSK (human) (P41240 whole entry, looked up): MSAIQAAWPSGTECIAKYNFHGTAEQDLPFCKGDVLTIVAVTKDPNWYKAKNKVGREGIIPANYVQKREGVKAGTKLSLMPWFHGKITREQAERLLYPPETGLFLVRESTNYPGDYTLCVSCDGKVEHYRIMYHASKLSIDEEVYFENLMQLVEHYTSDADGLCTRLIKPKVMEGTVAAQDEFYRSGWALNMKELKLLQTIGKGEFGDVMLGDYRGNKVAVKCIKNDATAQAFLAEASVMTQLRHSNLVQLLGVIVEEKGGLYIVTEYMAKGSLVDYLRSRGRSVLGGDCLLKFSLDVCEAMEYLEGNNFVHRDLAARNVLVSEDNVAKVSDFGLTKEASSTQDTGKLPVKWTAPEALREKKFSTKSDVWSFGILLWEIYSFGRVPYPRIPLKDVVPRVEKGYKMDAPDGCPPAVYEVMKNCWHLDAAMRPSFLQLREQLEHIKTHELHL
# STK39 (human) = STK39 (human) (UniProt Q9UEW8)
# MST4 (human) = MST4 (human) (UniProt Q9P289)
# MAPKAPK2 (human) = MAPKAPK2 (human) (UniProt P49137)
# JAK3 JH1 JH2 (human) = JAK3 JH1 JH2 (human) (UniProt P52333)
# IGF1R (human) = IGF1R (human) (UniProt P08069)
# ALK (human) = ALK (human) (UniProt Q9UM73)
# Sequence of ALK (human) (Q9UM73 whole entry, looked up): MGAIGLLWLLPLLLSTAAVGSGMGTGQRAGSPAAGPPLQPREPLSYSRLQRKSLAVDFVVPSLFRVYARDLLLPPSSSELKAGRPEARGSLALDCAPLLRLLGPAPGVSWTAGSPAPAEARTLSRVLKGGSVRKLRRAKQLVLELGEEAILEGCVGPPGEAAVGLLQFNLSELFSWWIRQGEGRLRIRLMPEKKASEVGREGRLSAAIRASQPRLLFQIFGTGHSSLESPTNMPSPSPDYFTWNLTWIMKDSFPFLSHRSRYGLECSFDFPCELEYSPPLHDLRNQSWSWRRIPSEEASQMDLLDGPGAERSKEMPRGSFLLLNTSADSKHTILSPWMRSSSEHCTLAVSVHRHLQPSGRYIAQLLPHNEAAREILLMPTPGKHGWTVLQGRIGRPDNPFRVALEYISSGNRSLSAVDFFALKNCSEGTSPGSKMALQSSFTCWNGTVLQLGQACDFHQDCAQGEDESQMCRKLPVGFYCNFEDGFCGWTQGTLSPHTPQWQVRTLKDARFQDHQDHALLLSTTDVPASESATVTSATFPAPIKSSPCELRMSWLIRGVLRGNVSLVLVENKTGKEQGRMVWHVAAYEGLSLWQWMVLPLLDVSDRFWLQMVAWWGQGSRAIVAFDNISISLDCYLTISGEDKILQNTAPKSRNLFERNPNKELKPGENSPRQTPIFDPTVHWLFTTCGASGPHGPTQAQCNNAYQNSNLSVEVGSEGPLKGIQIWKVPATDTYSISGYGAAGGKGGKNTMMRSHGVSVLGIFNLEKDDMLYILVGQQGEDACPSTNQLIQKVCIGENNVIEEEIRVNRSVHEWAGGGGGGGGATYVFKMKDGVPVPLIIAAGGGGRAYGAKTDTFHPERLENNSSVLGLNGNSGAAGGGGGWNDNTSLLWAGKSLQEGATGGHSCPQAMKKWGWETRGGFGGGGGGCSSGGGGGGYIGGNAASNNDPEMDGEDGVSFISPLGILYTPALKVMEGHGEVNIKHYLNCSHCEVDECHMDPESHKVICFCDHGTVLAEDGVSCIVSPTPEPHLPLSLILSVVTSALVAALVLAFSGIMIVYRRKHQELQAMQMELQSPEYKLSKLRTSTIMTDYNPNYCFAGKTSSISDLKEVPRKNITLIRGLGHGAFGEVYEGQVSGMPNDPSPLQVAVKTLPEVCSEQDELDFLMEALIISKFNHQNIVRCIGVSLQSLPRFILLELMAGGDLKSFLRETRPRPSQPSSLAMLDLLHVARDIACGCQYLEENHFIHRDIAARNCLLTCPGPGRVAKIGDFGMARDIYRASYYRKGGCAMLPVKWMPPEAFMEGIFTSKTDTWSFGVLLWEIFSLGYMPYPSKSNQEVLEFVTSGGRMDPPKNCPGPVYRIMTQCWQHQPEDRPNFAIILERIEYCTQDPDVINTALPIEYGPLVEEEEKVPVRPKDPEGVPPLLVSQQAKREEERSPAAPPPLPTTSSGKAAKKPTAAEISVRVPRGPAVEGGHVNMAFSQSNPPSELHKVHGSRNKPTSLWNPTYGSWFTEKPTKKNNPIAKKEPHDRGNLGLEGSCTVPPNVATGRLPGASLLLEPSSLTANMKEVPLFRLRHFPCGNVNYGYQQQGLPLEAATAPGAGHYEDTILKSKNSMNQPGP
# IKBKB (human) = IKBKB (human) (UniProt O14920)
# CDK3 CCNE1 (human) = CDK3 CCNE1 (human) (UniProt Q00526+P24864)
# PRKG1 (human) = PRKG1 (human) (UniProt Q13976)
# CAMK2A (human) = CAMK2A (human) (UniProt Q9UQM7)
# CHEK2 (human) = CHEK2 (human) (UniProt O96017)
# Sequence of CHEK2 (human) (O96017 whole entry, looked up): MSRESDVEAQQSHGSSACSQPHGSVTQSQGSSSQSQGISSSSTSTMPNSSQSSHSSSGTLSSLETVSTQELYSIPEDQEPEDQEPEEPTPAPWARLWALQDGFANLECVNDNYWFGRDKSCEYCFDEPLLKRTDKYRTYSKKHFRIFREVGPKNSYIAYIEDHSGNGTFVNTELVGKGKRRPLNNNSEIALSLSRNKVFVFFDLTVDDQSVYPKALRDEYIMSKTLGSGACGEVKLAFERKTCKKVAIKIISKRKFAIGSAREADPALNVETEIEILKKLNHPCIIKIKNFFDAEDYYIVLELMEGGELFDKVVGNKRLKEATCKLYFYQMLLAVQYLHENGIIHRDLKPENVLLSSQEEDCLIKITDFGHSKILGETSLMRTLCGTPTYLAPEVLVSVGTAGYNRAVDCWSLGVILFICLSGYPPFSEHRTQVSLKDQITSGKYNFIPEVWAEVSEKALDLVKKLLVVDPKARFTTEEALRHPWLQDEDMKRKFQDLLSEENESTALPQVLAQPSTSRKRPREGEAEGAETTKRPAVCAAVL
# MATK (human) = MATK (human) (UniProt P42679)
# DAPK2 (human) = DAPK2 (human) (UniProt Q9UIK4)
# DCLK2 (human) = DCLK2 (human) (UniProt Q8N568)
# NEK6 (human) = NEK6 (human) (UniProt Q9HC98)
# CLK2 (human) = CLK2 (human) (UniProt P49760)
# GSG2 (human) = GSG2 (human) (UniProt Q8TF76)
# CDK7 CCNH MNAT1 (human) = CDK7 CCNH MNAT1 (human) (UniProt P50613+P51948+P51946)
# CDC42BPA (human) = CDC42BPA (human) (UniProt Q5VT25)
# NLK (human) = NLK (human) (UniProt Q9UBE8)
# FLT3 (human) = FLT3 (human) (UniProt P36888)
# PRKCG (human) = PRKCG (human) (UniProt P05129)
# PLK3 (human) = PLK3 (human) (UniProt Q9H4B4)
# Sequence of PLK3 (human) (Q9H4B4 whole entry, looked up): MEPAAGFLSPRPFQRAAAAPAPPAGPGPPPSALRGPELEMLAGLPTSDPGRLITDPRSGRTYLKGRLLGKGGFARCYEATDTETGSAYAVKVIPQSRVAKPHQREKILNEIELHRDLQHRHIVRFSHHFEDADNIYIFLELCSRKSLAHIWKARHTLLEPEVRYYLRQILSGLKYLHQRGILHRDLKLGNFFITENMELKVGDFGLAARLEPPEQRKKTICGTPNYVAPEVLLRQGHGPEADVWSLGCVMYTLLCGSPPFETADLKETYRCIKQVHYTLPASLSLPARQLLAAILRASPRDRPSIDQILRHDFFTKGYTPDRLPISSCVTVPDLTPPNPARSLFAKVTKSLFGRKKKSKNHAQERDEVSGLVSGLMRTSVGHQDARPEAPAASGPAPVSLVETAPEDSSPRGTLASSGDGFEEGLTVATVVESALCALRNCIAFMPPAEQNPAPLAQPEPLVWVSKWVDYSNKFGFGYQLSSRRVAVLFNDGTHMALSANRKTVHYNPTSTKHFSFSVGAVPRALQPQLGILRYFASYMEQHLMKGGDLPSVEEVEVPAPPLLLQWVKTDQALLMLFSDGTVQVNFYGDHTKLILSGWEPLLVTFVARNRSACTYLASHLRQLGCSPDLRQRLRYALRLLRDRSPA
# AURKB (human) = AURKB (human) (UniProt Q96GD4)
# PAK1 (human) = PAK1 (human) (UniProt Q13153)
# NEK9 (human) = NEK9 (human) (UniProt Q8TD19)
# MAP3K11 (human) = MAP3K11 (human) (UniProt Q16584)
# MAP3K7 TAB1 (human) = MAP3K7 TAB1 (human) (UniProt O43318+Q15750)
# LYN (human) = LYN (human) (UniProt P07948)
# CDK6 CCND1 (human) = CDK6 CCND1 (human) (UniProt Q00534+P24385)
# VRK1 (human) = VRK1 (human) (UniProt Q99986)
# EGFR (human) = EGFR (human) (UniProt P00533)
# EPHA4 (human) = EPHA4 (human) (UniProt P54764)
# Sequence of EPHA4 (human) (P54764 whole entry, looked up): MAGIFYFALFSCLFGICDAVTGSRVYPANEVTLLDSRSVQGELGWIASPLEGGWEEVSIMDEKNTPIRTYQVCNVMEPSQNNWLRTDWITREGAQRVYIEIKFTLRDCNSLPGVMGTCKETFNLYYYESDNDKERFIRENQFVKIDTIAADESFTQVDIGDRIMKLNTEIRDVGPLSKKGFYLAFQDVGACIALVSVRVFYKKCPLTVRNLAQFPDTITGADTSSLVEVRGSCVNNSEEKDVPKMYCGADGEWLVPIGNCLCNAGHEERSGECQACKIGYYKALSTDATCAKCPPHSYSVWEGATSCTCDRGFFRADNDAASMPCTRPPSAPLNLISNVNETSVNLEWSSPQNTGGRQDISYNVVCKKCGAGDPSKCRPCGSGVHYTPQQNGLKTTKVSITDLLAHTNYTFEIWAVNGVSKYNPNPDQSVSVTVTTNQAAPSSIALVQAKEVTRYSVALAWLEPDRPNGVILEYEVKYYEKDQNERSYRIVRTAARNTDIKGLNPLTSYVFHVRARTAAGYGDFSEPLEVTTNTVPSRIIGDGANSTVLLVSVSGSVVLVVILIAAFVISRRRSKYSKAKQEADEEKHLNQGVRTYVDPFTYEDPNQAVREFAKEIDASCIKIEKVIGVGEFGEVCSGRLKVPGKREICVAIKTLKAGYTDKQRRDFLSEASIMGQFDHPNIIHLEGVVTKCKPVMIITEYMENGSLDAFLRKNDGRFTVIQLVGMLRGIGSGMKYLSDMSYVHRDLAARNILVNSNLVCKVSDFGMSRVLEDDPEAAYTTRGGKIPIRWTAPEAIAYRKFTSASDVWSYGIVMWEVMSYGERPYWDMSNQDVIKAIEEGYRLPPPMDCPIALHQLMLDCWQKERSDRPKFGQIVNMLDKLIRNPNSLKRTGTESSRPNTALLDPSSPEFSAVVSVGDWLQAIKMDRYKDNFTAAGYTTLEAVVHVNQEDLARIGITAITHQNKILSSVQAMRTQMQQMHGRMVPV
# CDK6 CCND3 (human) = CDK6 CCND3 (human) (UniProt P30281+Q00534)
# Sequence of CDK6 CCND3 (human) (P30281 whole entry, looked up): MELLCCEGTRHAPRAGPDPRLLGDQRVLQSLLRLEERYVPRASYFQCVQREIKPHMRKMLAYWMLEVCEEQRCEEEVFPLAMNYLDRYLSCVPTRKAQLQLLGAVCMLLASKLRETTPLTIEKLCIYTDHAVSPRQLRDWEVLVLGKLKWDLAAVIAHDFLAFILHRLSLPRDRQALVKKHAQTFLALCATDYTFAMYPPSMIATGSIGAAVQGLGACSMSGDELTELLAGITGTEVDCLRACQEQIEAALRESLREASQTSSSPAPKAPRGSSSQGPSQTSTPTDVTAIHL
# Sequence of CDK6 CCND3 (human) (Q00534 whole entry, looked up): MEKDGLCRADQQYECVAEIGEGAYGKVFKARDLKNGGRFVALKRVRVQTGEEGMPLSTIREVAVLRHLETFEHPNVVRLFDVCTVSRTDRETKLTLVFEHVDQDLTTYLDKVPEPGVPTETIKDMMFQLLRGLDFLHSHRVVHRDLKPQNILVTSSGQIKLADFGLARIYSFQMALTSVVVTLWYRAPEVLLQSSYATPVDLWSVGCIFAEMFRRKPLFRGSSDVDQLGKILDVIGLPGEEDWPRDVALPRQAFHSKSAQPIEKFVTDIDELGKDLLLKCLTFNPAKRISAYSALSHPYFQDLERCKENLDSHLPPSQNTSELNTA
structure (smiles),measurement,setting,value
COc1ccc(Cl)cc1NC(=O)Nc1cc(C)nc2ccccc12,residual activity,PRKCE (human),99.7%
same,residual activity,BRAF (human),98.9%
same,residual activity,PRKCH (human),88.6%
same,residual activity,MAP4K4 (human),84.7%
same,residual activity,CSK (human),99.9%
same,residual activity,STK39 (human),98.5%
same,residual activity,MST4 (human),77.6%
same,residual activity,MAPKAPK2 (human),109%
same,residual activity,JAK3 JH1 JH2 (human),103%
same,residual activity,IGF1R (human),94.9%
same,residual activity,ALK (human),99.2%
same,residual activity,IKBKB (human),94.3%
same,residual activity,CDK3 CCNE1 (human),93.6%
same,residual activity,PRKG1 (human),108% and 97.5%
same,residual activity,CAMK2A (human),101%
same,residual activity,CHEK2 (human),101%
same,residual activity,MATK (human),98.2%
same,residual activity,DAPK2 (human),99.1%
same,residual activity,DCLK2 (human),96.5%
same,residual activity,NEK6 (human),97.8%
same,residual activity,CLK2 (human),97.7%
same,residual activity,GSG2 (human),95.7%
same,residual activity,CDK7 CCNH MNAT1 (human),101%
same,residual activity,CDC42BPA (human),98.8%
same,residual activity,NLK (human),94.5%
same,residual activity,FLT3 (human),94.4%
same,residual activity,PRKCG (human),107%
same,residual activity,PLK3 (human),100%
same,residual activity,AURKB (human),95.9%
same,residual activity,PAK1 (human),94.8%
same,residual activity,NEK9 (human),104%
same,residual activity,MAP3K11 (human),89%
same,residual activity,MAP3K7 TAB1 (human),101%
same,residual activity,LYN (human),111% and 99.2%
same,residual activity,CDK6 CCND1 (human),89.8%
same,residual activity,VRK1 (human),84.6%
same,residual activity,EGFR (human),98%
same,residual activity,EPHA4 (human),104%
same,residual activity,CDK6 CCND3 (human),99%
COc1ccc(C(=O)Nc2sc3c(c2C(N)=O)CCCC3)cc1OC,residual activity,PRKCE (human),95%
same,residual activity,PRKCH (human),101%
same,residual activity,MAP4K4 (human),79.9%
same,residual activity,CSK (human),98.8%
same,residual activity,STK39 (human),101%
same,residual activity,MST4 (human),96.6%
same,residual activity,MAPKAPK2 (human),104%
same,residual activity,JAK3 JH1 JH2 (human),108%
same,residual activity,IGF1R (human),97.7%
same,residual activity,ALK (human),66.2%
same,residual activity,IKBKB (human),87.6%
same,residual activity,CDK3 CCNE1 (human),104%
same,residual activity,PRKG1 (human),87.5% and 97%
same,residual activity,CAMK2A (human),100%
same,residual activity,CHEK2 (human),93%
same,residual activity,MATK (human),92.7%
same,residual activity,DAPK2 (human),106%
same,residual activity,DCLK2 (human),98.6%
same,residual activity,NEK6 (human),92.7%
same,residual activity,CLK2 (human),86.5%
same,residual activity,GSG2 (human),82.8%
same,residual activity,CDK7 CCNH MNAT1 (human),99.9%
same,residual activity,CDC42BPA (human),81.8%
same,residual activity,NLK (human),93.7%
same,residual activity,FLT3 (human),42%
same,residual activity,PRKCG (human),93%
same,residual activity,PLK3 (human),95%
same,residual activity,AURKB (human),96.2%
same,residual activity,PAK1 (human),94%
same,residual activity,NEK9 (human),94.6%
same,residual activity,MAP3K11 (human),96.8%
same,residual activity,MAP3K7 TAB1 (human),101%
same,residual activity,LYN (human),93.5% and 95.9%
same,residual activity,CDK6 CCND1 (human),95.1%
same,residual activity,VRK1 (human),95.3%
same,residual activity,EGFR (human),99.9%
same,residual activity,EPHA4 (human),104%
same,residual activity,CDK6 CCND3 (human),94.9%
O=C(c1cc2cc(O)ccc2[nH]1)c1cc2cc(O)ccc2[nH]1,residual activity,PRKCE (human),119%
same,residual activity,BRAF (human),97.4%
same,residual activity,PRKCH (human),76.3%
same,residual activity,MAP4K4 (human),6.63%
same,residual activity,CSK (human),106%
same,residual activity,STK39 (human),97.6%
same,residual activity,MST4 (human),101%
same,residual activity,MAPKAPK2 (human),103%
same,residual activity,JAK3 JH1 JH2 (human),94.5%
same,residual activity,IGF1R (human),103%
same,residual activity,ALK (human),97%
same,residual activity,IKBKB (human),91.3%
same,residual activity,CDK3 CCNE1 (human),85.2%
same,residual activity,PRKG1 (human),84.3% and 90%
same,residual activity,CAMK2A (human),74.5%
same,residual activity,CHEK2 (human),80.1%
same,residual activity,MATK (human),93.3%
same,residual activity,DAPK2 (human),101%
same,residual activity,DCLK2 (human),88.4%
same,residual activity,NEK6 (human),99.6%
same,residual activity,CLK2 (human),105%
same,residual activity,GSG2 (human),34.8%
same,residual activity,CDK7 CCNH MNAT1 (human),93.5%
same,residual activity,CDC42BPA (human),90.2%
same,residual activity,NLK (human),83.2%
same,residual activity,FLT3 (human),3.53%
same,residual activity,PRKCG (human),85.1%
same,residual activity,PLK3 (human),101%
same,residual activity,AURKB (human),24.2%
same,residual activity,PAK1 (human),94.6%
same,residual activity,NEK9 (human),93.6%
same,residual activity,MAP3K11 (human),24.5%
same,residual activity,MAP3K7 TAB1 (human),79.5%
same,residual activity,CDK6 CCND1 (human),81.2%
same,residual activity,VRK1 (human),85.3%
same,residual activity,EGFR (human),97.6%
same,residual activity,EPHA4 (human),109%
same,residual activity,CDK6 CCND3 (human),50.3%
COc1ccc2c(c1)c(C1=C(c3c[nH]c4ccccc34)C(=O)NC1=O)cn2CCCN(C)C,residual activity,PRKCE (human),14.6%
same,residual activity,PRKCH (human),6.85%
same,residual activity,MAP4K4 (human),37.8%
same,residual activity,CSK (human),84%
same,residual activity,STK39 (human),111%
same,residual activity,MST4 (human),40.4%
same,residual activity,MAPKAPK2 (human),99.7%
same,residual activity,JAK3 JH1 JH2 (human),138%
same,residual activity,IGF1R (human),115%
same,residual activity,ALK (human),96%
same,residual activity,IKBKB (human),99.6%
same,residual activity,CDK3 CCNE1 (human),78.8%
same,residual activity,PRKG1 (human),79.4% and 99.5%
same,residual activity,CAMK2A (human),102%
same,residual activity,CHEK2 (human),38.8%
same,residual activity,MATK (human),99.3%
same,residual activity,DAPK2 (human),81.1%
same,residual activity,DCLK2 (human),84.8%
same,residual activity,NEK6 (human),101%
same,residual activity,CLK2 (human),78%
same,residual activity,GSG2 (human),93.5%
same,residual activity,CDK7 CCNH MNAT1 (human),88%
same,residual activity,CDC42BPA (human),89.2%
same,residual activity,NLK (human),87.9%
same,residual activity,FLT3 (human),23.2%
same,residual activity,PRKCG (human),54%
same,residual activity,PLK3 (human),93%
same,residual activity,AURKB (human),88.5%
same,residual activity,PAK1 (human),87.4%
same,residual activity,NEK9 (human),90.3%
same,residual activity,MAP3K11 (human),75.6%
same,residual activity,MAP3K7 TAB1 (human),102%
same,residual activity,LYN (human),112% and 94.2%
same,residual activity,CDK6 CCND1 (human),64%
same,residual activity,VRK1 (human),76.7%
same,residual activity,EGFR (human),92.6%
same,residual activity,EPHA4 (human),94.5%
same,residual activity,CDK6 CCND3 (human),85%
Cn1c2ccccc2c2c3c(c4c5ccccc5n(CCC#N)c4c21)CNC3=O,residual activity,PRKCE (human),58.5%
same,residual activity,BRAF (human),110%
same,residual activity,PRKCH (human),35.3%
same,residual activity,MAP4K4 (human),0.433%
same,residual activity,CSK (human),81%
same,residual activity,STK39 (human),96.7%
same,residual activity,MST4 (human),89.8%
same,residual activity,MAPKAPK2 (human),109%
same,residual activity,JAK3 JH1 JH2 (human),2.44%
same,residual activity,IGF1R (human),98.3%
same,residual activity,ALK (human),12.2%
same,residual activity,IKBKB (human),90.4%
same,residual activity,CDK3 CCNE1 (human),65.2%
same,residual activity,PRKG1 (human),80.2% and 84.3%
same,residual activity,CAMK2A (human),19.1%
same,residual activity,CHEK2 (human),50.2%
same,residual activity,MATK (human),100%
same,residual activity,DAPK2 (human),84.4%
same,residual activity,DCLK2 (human),84.7%
same,residual activity,NEK6 (human),103%
same,residual activity,CLK2 (human),88.7%
same,residual activity,GSG2 (human),27.2%
same,residual activity,CDK7 CCNH MNAT1 (human),84.6%
same,residual activity,CDC42BPA (human),89.9%
same,residual activity,NLK (human),57.3%
same,residual activity,FLT3 (human),5.27%
same,residual activity,PRKCG (human),72.1%
same,residual activity,PLK3 (human),88.1%
same,residual activity,AURKB (human),33.1%
same,residual activity,PAK1 (human),83.3%
same,residual activity,NEK9 (human),96.9%
same,residual activity,MAP3K11 (human),2.19%
same,residual activity,MAP3K7 TAB1 (human),25.4%
same,residual activity,LYN (human),90.3% and 94.4%
same,residual activity,CDK6 CCND1 (human),39.4%
same,residual activity,VRK1 (human),84%
same,residual activity,EPHA4 (human),90.4%
same,residual activity,CDK6 CCND3 (human),52.1%
